Our source for the half-life values is patent US20150018268A1, “MULTIVALENT SYNTHETIC COMPOUNDS AS ANTIBIOTIC TREATMENT” (CENTRE NATIONAL DE LA RECHERCHE SCIENTIFIQUE (CNRS), priority 2010, published 2015).

Square brackets hold non-standard residues; d marks the D form. Side chains are listed from the residue outwards. Peptide text beside a SMILES is read from it. * marks the point of attachment. X1 = NCCCCC(N)CN1CCC[C@H]1C(=O)*; Ahx = NCCCCCC(=O)O

Series [1] is described as follows: Half-life in human serum. The class given is in vitro ADME. Particulars: human serum at 37° C. The source says:
(§1) The term “standard peptide bond” means an amide bond of formula (—CONH—) which is normally present between 2 amino acids in a natural protein. Such a bond is sensitive to the action of proteases. The term “modified peptide bonds ψ” means a chemical bond between 2 amino acids of chemical formula distinct from the standard peptide bond of formula (—CONH—). […] The term “protease”, also known as “peptidase” or “proteolytic enzyme”, means any enzyme which cleaves the standard peptide bonds in proteins. This process is known as proteolytic cleavage. This involves the use of a water molecule which is what leads to proteases being classified as hydrolases. The proteases namely include proteases known as N-peptidases which carry out the cleavage of the N-terminal end of proteins. These proteases are particularly inconvenient in terms of the in vivo stability of peptides without modified peptide bonds.

Series [2] can be described thus: Half-life in foetal calf serum. The class given is in vitro ADME. The conditions noted are these: bovine; foetal calf serum at 37° C.
From the text: as §1

As a reminder, the half-life is the time in which the quantity being followed falls by half. As to `N=C(N)NCCC[C@H](NC(=O)[C@@H]1CCCN1CC(N)CCCCN)C(=O)NCCCC[C@H](NC(=O)[C@H](CCCCN)NC(=O)[C@H](CCCCNC(=O)[C@H](CCCNC(=N)N)NC(=O)[C@@H]1CCCN1CC(N)CCCCN)NC(=O)[C@H](CCCNC(=N)N)NC(=O)[C@@H]1CCCN1CC(N)CCCCN)C(=O)NCC(=O)N1CCC[C@H]1C(=O)N[C@@H](CCCCNC(=O)[C@H](CCCNC(=N)N)NC(=O)[C@@H]1CCCN1CC(N)CCCCN)C(=O)N[C@@H](CCC(=O)O)C(=O)N[C@@H](CCCCNC(=O)[C@H](CCCNC(=N)N)NC(=O)[C@@H]1CCCN1CC(N)CCCCN)C(=O)NCCCCCC(N)=O` (some centres unmarked) [HB19, 5[Kψ(CH2N)PR]-TASP] (X1-RK([Arg-X1])KK([Arg-X1])GPK([Arg-X1])EK([Arg-X1])[Ahx]-NH2), the half-life in series [1] and in series [2] was above 24 h throughout.
